Data: patent US20250215029A1 (Recludix Pharma, Inc., priority 2022, published 2025)

Each molecule was assayed against T1, pY641-STAT6 in PBMC (Homo sapiens, UniProt P42226) (assay: MSD-pSTAT-PBMC Assay (pSTAT6, IL-4 stimulated)). Conditions: PBMC, compound 3 hrs, then 1 ng/mL IL-4 for 10 min; Table 115; read-out: STAT6.
T1 construct: Cryopreserved Peripheral Blood Mononuclear Cells (PBMC) are from AllCells; host or cells: cryopreserved PBMC
T1 sequence (P42226 1-847): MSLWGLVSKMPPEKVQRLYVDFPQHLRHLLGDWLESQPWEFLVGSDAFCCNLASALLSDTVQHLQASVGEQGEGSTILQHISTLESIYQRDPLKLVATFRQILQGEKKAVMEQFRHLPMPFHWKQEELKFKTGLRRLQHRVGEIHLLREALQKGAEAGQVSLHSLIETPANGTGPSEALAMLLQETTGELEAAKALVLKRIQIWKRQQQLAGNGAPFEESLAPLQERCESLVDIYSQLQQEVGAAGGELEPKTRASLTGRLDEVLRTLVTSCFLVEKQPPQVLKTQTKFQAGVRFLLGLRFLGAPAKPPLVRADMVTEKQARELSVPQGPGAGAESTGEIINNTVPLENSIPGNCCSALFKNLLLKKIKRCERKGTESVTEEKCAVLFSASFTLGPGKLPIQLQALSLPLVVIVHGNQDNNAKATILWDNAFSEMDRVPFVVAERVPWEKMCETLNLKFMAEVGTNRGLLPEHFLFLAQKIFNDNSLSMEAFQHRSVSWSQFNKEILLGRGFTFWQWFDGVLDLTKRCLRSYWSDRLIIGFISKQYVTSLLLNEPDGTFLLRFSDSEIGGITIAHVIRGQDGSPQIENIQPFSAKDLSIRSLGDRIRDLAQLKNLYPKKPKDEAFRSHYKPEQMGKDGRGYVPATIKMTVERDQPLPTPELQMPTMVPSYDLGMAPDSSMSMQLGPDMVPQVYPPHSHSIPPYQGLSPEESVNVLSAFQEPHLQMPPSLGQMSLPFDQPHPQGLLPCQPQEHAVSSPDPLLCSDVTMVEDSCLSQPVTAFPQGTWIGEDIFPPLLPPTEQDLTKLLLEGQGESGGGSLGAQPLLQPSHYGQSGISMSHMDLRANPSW
Type: cell-based
Source text: Cryopreserved Peripheral Blood Mononuclear Cells (PBMC) are from AllCells. Recombinant Human IL-4 and IL-6 are from Peprotech. Mouse monoclonal anti-STAT3 antibody, rabbit monoclonal anti-pY705-STAT3 antibody, rabbit monoclonal Anti-pY641-STAT6 antibody, and lysis buffer are from Cell Signaling Technology (CST). Mouse monoclonal anti-STAT6 antibody is from BioLegend. Assay plates, blocker, and anti-rabbit secondary antibody are from Meso Scale Discovery (MSD).
Cyropreserved PBMCs were thawed out and allowed to recover overnight in IMDM+10% heat-inactivated FBS prior to plating 50,000 (STAT3) or 25,000 (STAT6) cells per well in 96-well U-bottom tissue culture plates. Cells were treated with compound for 3 hrs, then stimulated with 10 ng/mL IL-6 (STAT3) or 1 ng/mL IL-4 (STAT6) for 10 min. Cells were then spun down and washed with ice-cold PBS prior to lysing the cell pellet with 1× lysis buffer (CST) with 1× HALT protease and phosphatase inhibitor cocktail (Thermo). Lysates were transferred to and incubated overnight at 4° C. with shaking in QuickPlex 96-well high bind assay plates (MSD) pre-coated overnight with 30 μL per well of 0.6 μg/mL mouse monoclonal anti-STAT3 antibody (STAT3) or 2 μg/mL mouse monoclonal anti-STAT6 antibody (STAT6) in 1× PBS, and pre-blocked for 1 hour with 3% Blocker-A (MSD). Captured protein in the assay plates were then washed and probed with 25 μL per well of […] rabbit monoclonal anti-pY705-STAT3 antibody (STAT3) or 0.18 μg/ml rabbit monoclonal Anti-pY641-STAT6 antibody (STAT6) in 1% Blocker-A for 1 hour at room temperature with shaking, then washed and probed with 25 ul per well of 1 ug/ml Sulfo-TAG Labeled Goat Anti-Rabbit Antibody (MSD) in 1% Blocker-A for 1 hour at room temperature with shaking. Assay plates were then washed and 150 μL of 1× Read Buffer-T (MSD) was added to each well prior to reading on an SQ120 MSD Plate Reader. Assay signal from each sample was subtracted by the signal from unstimulated control wells and normalized to DMSO control wells. IC50 values were calculated using Graph Pad Prism Dose-Response Nonlinear Regression with variable slope. For both pSTAT3 and pSTAT6 A=≤100 nM; B 100-1000 nM; C=>1000-3000 nM; D=>3 μM; and NT=Not Tested.

Row | SMILES | IC50
1 | CC(C)OC(=O)OCOP(=O)(OCCSC(=O)C(C)(C)C)C(F)(F)c1ccc2sc(C(=O)N[C@H]3CCCC[C@H]4CC[C@@H](C(=O)N5C[C@@H](C#N)[C@H](c6ccccc6)C5)N4C3=O)cc2c1 (single isomer, unassigned) [Compound 1012] | < 100 nM
2 | COCCOCC(=O)SCCOP(=O)(OCCSC(=O)COCCOC)C(F)(F)c1ccc2ccc(C(=O)N[C@H]3CCCC[C@H]4CC[C@@H](C(=O)N5C[C@@H](C#N)[C@H](c6cc[nH]c(=O)c6)C5)N4C3=O)cc2c1 (single isomer, unassigned) [Compound 1013] | 100 to 1000 nM
3 | CC(C)(C)C(=O)SCCOP(=O)(OCCSC(=O)C(C)(C)C)C(F)(F)c1ccc2sc(C(=O)N[C@H]3CCC[C@H]4CC[C@@H](C(=O)N5C[C@@H](c6ccccc6)[C@H](C#N)C56CC6)N4C3=O)cc2c1 (single isomer, unassigned) [Compound 1080] | < 100 nM
4 | CC(C)(C)C(=O)SCCOP(=O)(OCCSC(=O)C(C)(C)C)C(F)(F)c1ccc2sc(C(=O)N[C@H]3CCC[C@H]4CC[C@@H](C(=O)N5C[C@H](c6ccccc6)[C@@H](C#N)C56CC6)N4C3=O)cc2c1 (single isomer, unassigned) [Compound 1081] | < 100 nM
5 | COCCOC(=O)[C@H](C)NP(=O)(OCC(F)(F)F)[C@@H](F)c1ccc2sc(C(=O)N[C@H]3CCCC[C@H]4CC[C@@H](C(=O)N5CC(c6ccccc6)C(C#N)C56CC6)N4C3=O)cc2c1 (stereo in doubt) [Compound 377, 2-methoxyethyl (((R)-(2-(((3S,6S,10aS)-3-((6S,7R)-7-cyano-6-phenyl-4-azaspiro[2.4]heptane-4-carbonyl)-5-oxodecahydropyrrolo [1,2-a]azocin-6-yl)carbamoyl)benzo [b]thiophen-5-yl)fluoromethyl)(2,2,2-trifluoroethoxy)phosphoryl)-L-alaninate] | < 100 nM

Same assay, conditions: STAT6, PBMC, compound 3 hrs, then 1 ng/mL IL-4 for 10 min; Table 115

Row | SMILES | IC50
6 | CCCOC(=O)[C@H](C)NP(=O)(Oc1ccccc1)[C@H](F)c1ccc2sc(C(=O)N[C@H]3CCCC[C@H]4CC[C@@H](C(=O)N5CC(c6cccnc6)CC56CC6)N4C3=O)cc2c1 (stereo in doubt) [Compound 458, propyl (((S)-fluoro(2-(((3S,6S,10aS)-5-oxo-3-((R)-6-(pyridin-3-yl)-4-azaspiro[2.4]heptane-4-carbonyl)decahydropyrrolo[1,2-a]azocin-6-yl)carbamoyl)benzo [b]thiophen-5-yl)methyl)(phenoxy)phosphoryl)-L-alaninate] | < 100 nM
7 | CCCOC(=O)[C@H](C)NP(=O)(Oc1ccccc1)C(F)c1ccc2sc(C(=O)N[C@H]3CCCC[C@H]4CC[C@@H](C(=O)N5C[C@H](c6cccnc6)CC56CC6)N4C3=O)cc2c1 (stereo in doubt) [Compound 459, propyl (((S)-fluoro(2-(((3S,6S,10aS)-5-oxo-3-((S)-6-(pyridin-3-yl)-4-azaspiro[2.4]heptane-4-carbonyl)decahydropyrrolo[1,2-a]azocin-6-yl)carbamoyl)benzo [b]thiophen-5-yl)methyl)(phenoxy)phosphoryl)-L-alaninate] | < 100 nM
8 | CCCOC(=O)[C@H](C)N[P@@](=O)(Oc1ccccc1)[C@@H](F)c1ccc2sc(C(=O)N[C@H]3CCCC[C@H]4CC[C@@H](C(=O)N5C[C@@H](c6cccnc6)CC56CC6)N4C3=O)cc2c1 (stereo in doubt) [Compound 460, propyl (((R)-fluoro(2-(((3S,6S,10aS)-5-oxo-3-((S)-6-(pyridin-3-yl)-4-azaspiro[2.4]heptane-4-carbonyl)decahydropyrrolo[1,2-a]azocin-6-yl)carbamoyl)benzo [b]thiophen-5-yl)methyl)(phenoxy)phosphoryl)-L-alaninate] | < 100 nM
9 | CCCOC(=O)[C@H](C)NP(=O)(Oc1ccccc1)[C@@H](F)c1ccc2sc(C(=O)N[C@H]3CCCC[C@H]4CC[C@@H](C(=O)N5C(=O)N(c6cncc(C)c6)C(=O)C56CC6)N4C3=O)cc2c1 (stereo partly drawn) [Compound 303, propyl (((R)-fluoro(2-(((3S,6S,10aS)-3-(6-(5-methylpyridin-3-yl)-5,7-dioxo-4,6-diazaspiro [2.4]heptane-4-carbonyl)-5-oxodecahydropyrrolo [1,2-a]azocin-6-yl)carbamoyl)benzo [b]thiophen-5-yl)methyl)(phenoxy)phosphoryl)-L-alaninate] | 100 to 1000 nM
10 | CCCOC(=O)[C@H](C)NP(=O)(Cc1ccc2ccc(C(=O)N[C@H]3CCCC[C@H]4CC[C@@H](C(=O)N5CCC(c6cccnc6)C5)N4C3=O)cc2c1)Oc1ccccc1 (stereo partly drawn) [Compound 305, propyl (((7-(((3S,6S,10aS)-5-oxo-3-(3-(pyridin-3-yl)pyrrolidine-1-carbonyl)decahydropyrrolo[1,2-a]azocin-6-yl)carbamoyl)naphthalen-2-yl)methyl)(phenoxy)phosphoryl)-L-alaninate] | 100 to 1000 nM
11 | CCCOC(=O)[C@H](C)NP(=O)(Oc1ccccc1)C(F)(F)c1ccc2ccc(C(=O)N[C@H]3CCCC[C@H]4CC[C@@H](C(=O)N5CCC(c6cccnc6)C5)N4C3=O)cc2c1 (stereo partly drawn) [Compound 312, propyl ((difluoro(7-(((3S,6S,10aS)-5-oxo-3-(3-(pyridin-3-yl)pyrrolidine-1-carbonyl)decahydropyrrolo[1,2-a]azocin-6-yl)carbamoyl)naphthalen-2-yl)methyl)(phenoxy)phosphoryl)-L-alaninate] | > 3000 nM
12 | CCCOC(=O)[C@H](C)NP(=O)(Oc1ccccc1)C(C)(F)c1ccc2sc(C(=O)N[C@H]3CCCC[C@H]4CC[C@@H](C(=O)N5CCC(c6cccnc6)C5)N4C3=O)cc2c1 (stereo partly drawn) [Compound 314, propyl ((1-fluoro-1-(2-(((3S,6S,10aS)-5-oxo-3-(3-(pyridin-3-yl)pyrrolidine-1-carbonyl)decahydropyrrolo[1,2-a]azocin-6-yl)carbamoyl)benzo [b]thiophen-5-yl)ethyl)(phenoxy)phosphoryl)-L-alaninate] | > 3000 nM
13 | CCCOC(=O)[C@H](C)NP(=O)(Oc1ccccc1)[C@@H](F)c1ccc2sc(C(=O)N[C@H]3CCCC[C@H]4CC[C@@H](C(=O)N5C(=O)N(c6ccc(C(F)(F)F)nc6)C(=O)C56CC6)N4C3=O)cc2c1 (stereo partly drawn) [Compound 327, propyl (((R)-(2-(((3S,6S,10aS)-3-(5,7-dioxo-6-(6-(trifluoromethyl)pyridin-3-yl)-4,6-diazaspiro[2.4]heptane-4-carbonyl)-5-oxodecahydropyrrolo [1,2-a]azocin-6-yl)carbamoyl)benzo [b]thiophen-5-yl)fluoromethyl) (phenoxy)phosphoryl)-L-alaninate] | > 3000 nM

Same assay, conditions: read-out: STAT6; PBMC, compound 3 hrs, then 1 ng/mL IL-4 for 10 min; Table 115

Row | SMILES | IC50
14 | CCCOC(=O)[C@H](C)NP(=O)(Oc1ccccc1)[C@@H](F)c1ccc2sc(C(=O)N[C@H]3CCCC[C@H]4CC[C@@H](C(=O)N5C[C@@H](c6cccc(C(F)F)c6)[C@H](C#N)C56CC6)N4C3=O)cc2c1 (single isomer, unassigned) [Compound 483] | < 100 nM
